The values below are quoted from earlier work in patent publication US11678659B2, “Use as rodenticides of compounds that inhibit blood coagulation” (priority 2014, dated 2023).

One series deals with T1, thrombin (Homo sapiens, UniProt P00734).
T1 construct: from tissue; host or cells: blood of human subjects (in vivo)
The note with it: administration for more than 35 days.

A further series addresses T2, thrombin receptor PAR-1 (Homo sapiens, UniProt P25116).
T2 construct: endogenous in cells; host or cells: study subjects (in vivo), platelets
T2 sequence (P25116 22-425): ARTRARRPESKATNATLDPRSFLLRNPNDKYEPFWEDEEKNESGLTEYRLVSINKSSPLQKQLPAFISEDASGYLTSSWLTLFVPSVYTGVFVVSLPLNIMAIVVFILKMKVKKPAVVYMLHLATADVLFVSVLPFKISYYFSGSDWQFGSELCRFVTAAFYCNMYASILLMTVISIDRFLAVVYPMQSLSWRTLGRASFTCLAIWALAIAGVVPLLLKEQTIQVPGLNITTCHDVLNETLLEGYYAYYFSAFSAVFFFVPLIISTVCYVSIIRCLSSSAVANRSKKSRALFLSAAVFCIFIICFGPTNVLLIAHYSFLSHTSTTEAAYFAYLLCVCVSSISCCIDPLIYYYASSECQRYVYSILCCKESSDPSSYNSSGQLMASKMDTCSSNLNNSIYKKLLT

`CCOC(=O)CN[C@@H](C(=O)N1CC[C@H]1C(=O)NCc1ccc(/C(N)=N\O)cc1)C1CCCCC1` [ximelagatran]: the liver toxicity result at thrombin is listed as “risk of liver toxicity”.

As for `Br.CCOc1cc2c(c(F)c1OCC)C(=N)N(CC(=O)c1cc(N3CCOCC3)c(OC)c(C(C)(C)C)c1)C2` [Atopaxar, 1-(3-tert-butyl-4-methoxy-5-morpholin-4-yl-phenyl)-2-(5,6-diethoxy-4-fluoro-3-imino-1H-isoindol-2-yl)ethanone-hydrobromide], the bleedings observed entry at thrombin receptor PAR-1 (one study) is listed as “not statistically significant”. For the same compound, the liver enzymes result on thrombin receptor PAR-1 (two phase II studies) is “increase in liver enzymes”.
